According to patent publication US20230158042A1, “COMBINATION CANCER THERAPY WITH PENTAAZA MACROCYCLIC RING COMPLEX AND HORMONE THERAPY AGENT” (Galera Labs, LLC, priority 2020, published 2023):

Key:
MCF7-MnSOD^K68Q cells = experiment: Ki-67 staining in MCF7-MnSOD^K68Q cells; type: cell-based, human; settings: 5 µM GC4419 for 5 days
Protocol: MCF7-MnSOD^K68Q cells (in FIGS. 17a and 17b) and T47D-MnSOD^K68Q cells (in FIGS. 17c and 17d) were treated with 5 µM GC4419 and/or 1 µM 4-hydroxy-Tam for 5 days, and then stained for Ki-67 as well as DAPI. Quantifications of average Ki-67 intensity are shown in the bar graphs. In FIG. 17e, MCF7 and MCF7-HTR cells were implanted into both hind limbs of nude mice and tumor volumes were measured every 3 days for 6 weeks and the number of tumors that successfully implanted versus the total number of mice infected with MCF7 and MCF7-HTR as well as the average tumor weight and tumor size are shown. Representative images are shown. All experiments were done in triplicate. Error bars represent ± 1 SEM. ***p < 0.001.
Cells seeded on glass coverslips were fixed in 4% paraformaldehyde and then blocked with 1% BSA and 10% normal goat serum in 1x PBS. Cells were incubated with anti-Ki-67 (c-bioscience) antibody in 1x PBS followed by incubation with goat anti-rabbit IgG conjugated with Alexa Fluor 647 (Invitrogen) in 1x PBS with 5% goat serum. Cells were washed in 1x PBS, mounted, and imaged with a fluorescence microscope. Fluorescence images were captured using a laser scanning confocal microscope (Nikon A1 R). The paired images in all the figures were collected at the same gain and offset settings. Post-collection processing was applied uniformly to all paired images.

[1] = system: Sirt3^-/--MT-SIRT3^DN allografts; experiment: Sirt3-/--MT-SIRT3^DN mammary allograft tumor growth (bioluminescence); type: in vivo; settings: GC4419 by IP every other day for five weeks; compared to control mice
Protocol: FIGS. 29a-29b are plots showing that the growth of murine mammary allograft tumors is inhibited by exposure to the MnSOD mimic GC4419 much more in cells without expression of deacetylation competent SIRT3. […] Mice were subsequently injected with luciferin potassium (120 mg/kg) every week and signal intensity will be quantified. Error bars represent one SD from the mean.
These cell lines were subsequently infected with and selected to express either a SIRT3 wild-type (Sirt3^-/--MT-SIRT3^WT) or deacetylation activity null (Sirt3^-/--MT-SIRT3^DN) gene and a lenti-luciferase to assess tumor growth by bioluminescence. Allograft tumor mice were split into four groups: (1) control, untreated Sirt3^-/--MT-SIRT3^DN; (2) GC4419 treated Sirt3^-/--MT-SIRT3^DN; (3) control, untreated Sirt3^-/--MT-SIRT3^WT; and (4) GC4419 treated Sirt3^-/--MT-SIRT3^WT. […] Accordingly, it was shown that the growth of murine mammary allograft tumors is inhibited by pharmacologically mimicking the activity of deacetylated lysine 68 MnSOD with a manganese pentaazamacrocyclic dismutase mimetic much more in tumors without deacetylation competent SIRT3. Further, this supports that selection of tumors displaying an AcK68 signature could increase response to treatment with a MnPAM dismutase mimetic (or other methods) alone or in combination with other therapies.

**Q.** For [Cl][Mn][Cl].c1cc2nc(c1)CN[C@H]1CCCC[C@@H]1NCCN[C@H]1CCCC[C@@H]1NC2 [GC4419], which “Ki-67 IHC staining” value (MCF7-MnSOD^K68Q cells) is on record?
**A.** The value was “reversed the increase in Ki-67 IHC staining”.

**Q.** And the tumor growth [1]?
**A.** Its tumor growth is “significant decrease in tumor growth”.
